Source: article PMC10657444, “Design and evaluation of tadpole-like conformational antimicrobial peptides” (Communications Biology, 2023)
Read-outs that look alike come from different tables or passages of the source.

System: MRSA USA 300
Test: microbe, parasite or virus in culture
Type: cell-based, Staphylococcus aureus
Conditions: for MIC: Staphylococcus aureus
Procedure: MRSA USA 300 and K. pneumoniae ATCC 700603 were employed to assess the development of resistance. From inoculated microtiter panels, an aliquot of the well with the highest concentration permitting growth was taken and back diluted in fresh media to a turbidity of a 0.5 McFarland standard. This suspension was then further diluted and used to inoculate a fresh MIC panel resulting in a final concentration of 5 × 10^6 CFU/mL. Panels were incubated according to CLSI guidelines (M07, 11th edition, 2018), MICs were recorded and the next inoculum was prepared from the well containing the highest concentration of drug that allowed growth in identical fashion as described above.

O=C(O)c1cn(C2CC2)c2cc(N3CCNCC3)c(F)cc2c1=O [ciprofloxacin, reference compound]
2 µg/mL: MIC (96 h, read-out: Concentration (MIC in drug resistance assay), MRSA USA 300, day 4) | MIC (168 h, read-out: Concentration (MIC in drug resistance assay), MRSA USA 300, day 7) | MIC (240 h, read-out: Concentration (MIC in drug resistance assay), MRSA USA 300, day 10) | MIC (312 h, read-out: Concentration (MIC in drug resistance assay), MRSA USA 300, day 13) | MIC (336 h, read-out: Concentration (MIC in drug resistance assay), MRSA USA 300, day 14) | MIC (360 h, read-out: Concentration (MIC in drug resistance assay), MRSA USA 300, day 15) | MIC (384 h, read-out: Concentration (MIC in drug resistance assay), MRSA USA 300, day 16) | MIC (408 h, read-out: Concentration (MIC in drug resistance assay), MRSA USA 300, day 17) | MIC (432 h, read-out: Concentration (MIC in drug resistance assay), MRSA USA 300, day 18) | MIC (456 h, read-out: Concentration (MIC in drug resistance assay), MRSA USA 300, day 19) | MIC (504 h, read-out: Concentration (MIC in drug resistance assay), MRSA USA 300, day 21) | MIC (528 h, read-out: Concentration (MIC in drug resistance assay), MRSA USA 300, day 22) | MIC (552 h, read-out: Concentration (MIC in drug resistance assay), MRSA USA 300, day 23) | MIC (576 h, read-out: Concentration (MIC in drug resistance assay), MRSA USA 300, day 24) | MIC (600 h, read-out: Concentration (MIC in drug resistance assay), MRSA USA 300, day 25) | MIC (648 h, read-out: Concentration (MIC in drug resistance assay), MRSA USA 300, day 27) | MIC (672 h, read-out: Concentration (MIC in drug resistance assay), MRSA USA 300, day 28) | MIC (696 h, read-out: Concentration (MIC in drug resistance assay), MRSA USA 300, day 29)
0.5 µg/mL: MIC (24 h, read-out: Concentration (MIC in drug resistance assay), MRSA USA 300, day 1)
64 µg/mL: MIC (read-out: Concentration (MIC in drug resistance assay), MRSA USA 300, day 40)
63 µg/mL: MIC (read-out: Concentration (MIC in drug resistance assay), MRSA USA 300, day 39)
4 µg/mL: MIC (192 h, read-out: Concentration (MIC in drug resistance assay), MRSA USA 300, day 8) | MIC (216 h, read-out: Concentration (MIC in drug resistance assay), MRSA USA 300, day 9) | MIC (288 h, read-out: Concentration (MIC in drug resistance assay), MRSA USA 300, day 12) | MIC (480 h, read-out: Concentration (MIC in drug resistance assay), MRSA USA 300, day 20) | MIC (624 h, read-out: Concentration (MIC in drug resistance assay), MRSA USA 300, day 26) | MIC (read-out: Concentration (MIC in drug resistance assay), MRSA USA 300, day 30)
8 µg/mL: MIC (read-out: Concentration (MIC in drug resistance assay), MRSA USA 300, day 31)
1 µg/mL: MIC (0 h, read-out: Concentration (MIC in drug resistance assay), MRSA USA 300, day 0) | MIC (48 h, read-out: Concentration (MIC in drug resistance assay), MRSA USA 300, day 2) | MIC (72 h, read-out: Concentration (MIC in drug resistance assay), MRSA USA 300, day 3) | MIC (120 h, read-out: Concentration (MIC in drug resistance assay), MRSA USA 300, day 5) | MIC (144 h, read-out: Concentration (MIC in drug resistance assay), MRSA USA 300, day 6) | MIC (264 h, read-out: Concentration (MIC in drug resistance assay), MRSA USA 300, day 11)
64 fold: increase in MIC after 40 passages (serial passage at sub-MIC)
32 µg/mL: MIC (read-out: Concentration (MIC in drug resistance assay), MRSA USA 300, day 32) | MIC (read-out: Concentration (MIC in drug resistance assay), MRSA USA 300, day 36) | MIC (read-out: Concentration (MIC in drug resistance assay), MRSA USA 300, day 37) | MIC (read-out: Concentration (MIC in drug resistance assay), MRSA USA 300, day 38)
16 µg/mL: MIC (read-out: Concentration (MIC in drug resistance assay), MRSA USA 300, day 33) | MIC (read-out: Concentration (MIC in drug resistance assay), MRSA USA 300, day 34) | MIC (read-out: Concentration (MIC in drug resistance assay), MRSA USA 300, day 35)
